# From US7901700B2, “Bifenthrin/acetamiprid compositions for control of general household pests” (FMC Corporation, priority 2004, dated 2011)
# Key:
# [1] = tested on: Bed Bugs; assay: Bed bug mortality, spray chamber application; format: in vivo
# Description: The compositions of the present invention were tested for bed bug activity in the following manner:
# (§1) Test compositions made up of TALSTARONE® MULTI-INSECTICIDE and a 70% wettable powder of acetamiprid in distilled water were prepared that provided appropriate rates of application of combinations of bifenthrin and acetamiprid, as well as bifenthrin and acetamiprid alone.
# (§2) The spray chamber was then calibrated to deliver the treatment solution at the desired volume and pressure over the desired area on the chamber shelf. Spray chamber shelf height was adjusted to approximately 10.5 inches from the spray tip. The shelf was then covered with aluminum foil and the center of the shelf from front-to-back and end-to-end was determined. The bed bugs to be treated were collected and placed in screened 16 oz paper cups. The paper cups were placed onto the aluminum foil on the spray chamber shelf. The sprayer was activated and the test compound was applied to each paper cup interior. Bed bug mortality was measured.
# [2] = tested on: House Flies; assay: House fly knockdown and mortality, hand held sprayer application; format: in vivo
# Description: The compositions of the present invention were tested for house fly activity in the following manner:
# as §1
# A DeVilbiss hand held sprayer was used to deliver the treatment solution at the desired volume and pressure. The house flies to be treated were collected and placed in screened 16 oz paper cups. The hand held sprayer was activated and the test compound was applied to each paper cup interior. House fly knockdown and mortality were measured.
# [3] = tested on: Red Imported Fire Ant; assay: Red imported fire ant knockdown and mortality, spray chamber application; format: in vivo, Solenopsis invicta
# Description: The compositions of the present invention were tested for red imported fire ant activity in the following manner:
# as §1
# as §2, with “approximately 18” for “approximately 10.5”, “The red imported fire ants” for “The bed bugs”, “interior. Red imported fire ant knockdown and” for “interior. Bed bug”, “mortality were” for “mortality was”
# [4] = tested on: German cockroach; assay: German cockroach knockdown and mortality, spray chamber application; format: in vivo
# Description: The compositions of the present invention were tested for German cockroach activity in the following manner:
# as §1
# The spray chamber was then calibrated to deliver the treatment solution at the desired volume and pressure over the desired area on the chamber shelf. Spray chamber shelf height was adjusted to approximately 18 inches from the spray tip. The shelf was then covered with aluminum foil and the center of the shelf from front-to-back and end-to-end was determined. A desired number of 4.0″ sieve circles were marked on the aluminum foil with a permanent marker. The inside of a desired number of PVC rings were coated with a petroleum jelly/mineral oil mixture (1:2 ratio). The PVC rings were place on the sieve circles. 10 male German cockroaches were placed inside each PVC ring. The sprayer was activated and the test compound was applied to each PVC ring interior. German cockroach knockdown and mortality were measured.
# [5] = Rate of Appln. 250 PPM (0.025% by weight)
# [6] = Rate of Appln. 500 PPM (0.05% by weight)
# [7] = Rate of Appln. 1000 PPM (0.10% by weight)
# [8] = Rate of Appln. 100 PPM (0.01% by weight)
# [9] = Rate of Appln. 200 PPM (0.02% by weight)
# [10] = Rate of Appln. 125 PPM (0.0125% by weight)
# [11] = Rate of Appln. 50 PPM (0.005% by weight)
# [12] = Rate of Appln. 600 PPM (0.06% by weight)
# [13] = Rate of Appln. 10 PPM (0.001% by weight)
# [14] = Rate of Appln. 300 PPM (0.03% by weight)
smiles,measurement,setting,value
"C/C(=N\C#N)N(C)Cc1ccc(Cl)nc1 [B, (E)-N^1-[(6-chloro-3-pyridyl)methyl]-N^2-cyano-N^1-methylacetamidine]",Mortality Rate @ 2 hours,[1]; [5],30%
same,Mortality Rate @ 1 day,[1]; [5],95%
same,Mortality Rate @ 2 hours,[1]; [6],60%
same,Mortality Rate @ 1 day,[1]; [6],100%
same,Mortality Rate @ 2 hours,[1]; [7],95%
same,Mortality Rate @ 1 day,[1]; [7],100%
same,Knockdown Rate @ 15 minutes,[2]; [8],47%
same,Knockdown Rate @ 30 minutes,[2]; [8],47%
same,Knockdown Rate @ 60 minutes,[2]; [8],53%
same,Knockdown Rate @ 120 minutes,[2]; [8],41%
same,Knockdown Rate @ 240 minutes,[2]; [8],53%
same,Mortality Rate @ 1 day,[2]; [8],16%
same,Knockdown Rate @ 15 minutes,[2]; [9],69%
same,Knockdown Rate @ 30 minutes,[2]; [9],86%
same,Knockdown Rate @ 60 minutes,[2]; [9],72%
same,Knockdown Rate @ 120 minutes,[2]; [9],72%
same,Knockdown Rate @ 240 minutes,[2]; [9],78%
same,Mortality Rate @ 1 day,[2]; [9],28%
same,Knockdown Rate @ 10 minutes,[3]; [10],0%
same,Knockdown Rate @ 15 minutes,[3]; [10],0%
same,Knockdown Rate @ 30 minutes,[3]; [10],10%
same,Mortality Rate @ 60 minutes,[3]; [10],5%
same,Mortality Rate @ 120 minutes,[3]; [10],65%
same,Mortality Rate @ 240 minutes,[3]; [10],90%
same,Knockdown Rate @ 10 minutes,[3]; [5],10%
same,Knockdown Rate @ 15 minutes,[3]; [5],3%
same,Knockdown Rate @ 30 minutes,[3]; [5],5%
same,Mortality Rate @ 60 minutes,[3]; [5],13%
same,Mortality Rate @ 120 minutes,[3]; [5],98%
same,Mortality Rate @ 240 minutes,[3]; [5],100%
same,Knockdown Rate @ 10 minutes,[3]; [6],0%
same,Knockdown Rate @ 15 minutes,[3]; [6],15%
same,Knockdown Rate @ 30 minutes,[3]; [6],15%
same,Mortality Rate @ 60 minutes,[3]; [6],60%
same,Mortality Rate @ 120 minutes,[3]; [6],100%
same,Mortality Rate @ 240 minutes,[3]; [6],100%
same,Knockdown Rate @ 10 minutes,[4]; [11],0%
same,Knockdown Rate @ 15 minutes,[4]; [11],13%
same,Knockdown Rate @ 30 minutes,[4]; [11],38%
same,Mortality Rate @ 60 minutes,[4]; [11],53%
same,Mortality Rate @ 240 minutes,[4]; [11],63%
same,Knockdown Rate @ 10 minutes,[4]; [8],0%
same,Knockdown Rate @ 15 minutes,[4]; [8],8%
same,Knockdown Rate @ 30 minutes,[4]; [8],38%
same,Mortality Rate @ 60 minutes,[4]; [8],58%
same,Mortality Rate @ 240 minutes,[4]; [8],63%
same,Knockdown Rate @ 10 minutes,[4]; [5],10%
same,Knockdown Rate @ 15 minutes,[4]; [5],35%
same,Knockdown Rate @ 30 minutes,[4]; [5],75%
same,Mortality Rate @ 60 minutes,[4]; [5],88%
same,Mortality Rate @ 120 minutes,[4]; [5],90%
same,Mortality Rate @ 240 minutes,[4]; [5],83%
same,Knockdown Rate @ 10 minutes,[4]; [6],8%
same,Knockdown Rate @ 15 minutes,[4]; [6],45%
same,Knockdown Rate @ 30 minutes,[4]; [6],88%
same,Mortality Rate @ 60 minutes,[4]; [6],80%
same,Mortality Rate @ 120 minutes,[4]; [6],98%
same,Mortality Rate @ 240 minutes,[4]; [6],80%
same,Knockdown Rate @ 10 minutes,[4]; [7],38%
same,Knockdown Rate @ 15 minutes,[4]; [7],75%
same,Knockdown Rate @ 30 minutes,[4]; [7],93%
same,Mortality Rate @ 60 minutes,[4]; [7],100%
same,Mortality Rate @ 120 minutes,[4]; [7],98%
same,Mortality Rate @ 240 minutes,[4]; [7],80%
"Cc1c(COC(=O)[C@@H]2[C@H](/C=C(\Cl)C(F)(F)F)C2(C)C)cccc1-c1ccccc1 (racemic) [A, 2-methylbiphenyl-3-ylmethyl(Z)-(1RS)-cis-3-(2-chloro-3,3,3-trifluoroprop-1-enyl)-2,2-dimethylcyclopropanecarboxylate]",Mortality Rate @ 2 hours,[1]; [9],85%
same,Mortality Rate @ 1 day,[1]; [9],100%
same,Mortality Rate @ 2 hours,[1]; [12],75%
same,Mortality Rate @ 1 day,[1]; [12],100%
same,Knockdown Rate @ 15 minutes,[2]; [13],0%
same,Knockdown Rate @ 30 minutes,[2]; [13],0%
same,Knockdown Rate @ 60 minutes,[2]; [13],19%
same,Knockdown Rate @ 120 minutes,[2]; [13],19%
same,Knockdown Rate @ 240 minutes,[2]; [13],48%
same,Mortality Rate @ 1 day,[2]; [13],3%
same,Knockdown Rate @ 15 minutes,[2]; [11],0%
same,Knockdown Rate @ 30 minutes,[2]; [11],19%
same,Knockdown Rate @ 60 minutes,[2]; [11],59%
same,Knockdown Rate @ 120 minutes,[2]; [11],63%
same,Knockdown Rate @ 240 minutes,[2]; [11],100%
same,Mortality Rate @ 1 day,[2]; [11],63%
same,Knockdown Rate @ 10 minutes,[3]; [14],63%
same,Knockdown Rate @ 15 minutes,[3]; [14],100%
same,Knockdown Rate @ 30 minutes,[3]; [14],100%
same,Mortality Rate @ 60 minutes,[3]; [14],100%
same,Mortality Rate @ 120 minutes,[3]; [14],100%
same,Mortality Rate @ 240 minutes,[3]; [14],100%
same,Knockdown Rate @ 10 minutes,[3]; [12],78%
same,Knockdown Rate @ 15 minutes,[3]; [12],100%
same,Knockdown Rate @ 30 minutes,[3]; [12],100%
same,Mortality Rate @ 60 minutes,[3]; [12],100%
same,Mortality Rate @ 120 minutes,[3]; [12],100%
same,Mortality Rate @ 240 minutes,[3]; [12],100%
same,Knockdown Rate @ 10 minutes,[4]; [13],0%
same,Knockdown Rate @ 15 minutes,[4]; [13],3%
same,Knockdown Rate @ 30 minutes,[4]; [13],23%
same,Mortality Rate @ 60 minutes,[4]; [13],40%
same,Mortality Rate @ 240 minutes,[4]; [13],50%
same,Knockdown Rate @ 10 minutes,[4]; [11],0%
same,Knockdown Rate @ 15 minutes,[4]; [11],0%
same,Knockdown Rate @ 30 minutes,[4]; [11],0%
same,Mortality Rate @ 60 minutes,[4]; [11],38%
same,Mortality Rate @ 240 minutes,[4]; [11],60%
same,Knockdown Rate @ 10 minutes,[4]; [9],0%
same,Knockdown Rate @ 15 minutes,[4]; [9],3%
same,Knockdown Rate @ 30 minutes,[4]; [9],45%
same,Mortality Rate @ 60 minutes,[4]; [9],100%
same,Mortality Rate @ 120 minutes,[4]; [9],100%
same,Mortality Rate @ 240 minutes,[4]; [9],100%
same,Knockdown Rate @ 10 minutes,[4]; [12],0%
same,Knockdown Rate @ 15 minutes,[4]; [12],8%
same,Knockdown Rate @ 30 minutes,[4]; [12],60%
same,Mortality Rate @ 60 minutes,[4]; [12],100%
same,Mortality Rate @ 120 minutes,[4]; [12],100%
same,Mortality Rate @ 240 minutes,[4]; [12],100%
